Reference: patent publication US20160375155A1, “Collagen Imaging Compositions” (Collagen Medical, LLC, priority 2015, published 2016)
Where two headings read alike, the source gives them in different places. Bridge positions count the residues as written; N and C are the ends. Square brackets hold non-standard residues; d marks the D form. Peptide text beside a SMILES is read from it. * marks the point of attachment. X1 = O=C(O)CN1CCN(CC(=O)O)CCN([C@H](CCC(=O)*)C(=O)O)CCN(CC(=O)O)CC1; Bip = N[C@@H](Cc1ccc(-c2ccccc2)cc1)C(=O)O

Columns and labels:
[1] = target: T1, rat collagen (acid soluble, type I, rat tail) (Rattus norvegicus, UniProt P02454+P02466); assay: Collagen binding assay, dried rat collagen plate; conditions: 37° C., pH 7.4; collagen 5 μM; fit to 1 binding site
T1 construct: rat collagen (acid soluble, type I, rat tail, Millipore Inc, cat#08-115); purchased Millipore Inc 08-115; host or cells: rat tail
T1 sequence (P02454 152-1207 limits assumed): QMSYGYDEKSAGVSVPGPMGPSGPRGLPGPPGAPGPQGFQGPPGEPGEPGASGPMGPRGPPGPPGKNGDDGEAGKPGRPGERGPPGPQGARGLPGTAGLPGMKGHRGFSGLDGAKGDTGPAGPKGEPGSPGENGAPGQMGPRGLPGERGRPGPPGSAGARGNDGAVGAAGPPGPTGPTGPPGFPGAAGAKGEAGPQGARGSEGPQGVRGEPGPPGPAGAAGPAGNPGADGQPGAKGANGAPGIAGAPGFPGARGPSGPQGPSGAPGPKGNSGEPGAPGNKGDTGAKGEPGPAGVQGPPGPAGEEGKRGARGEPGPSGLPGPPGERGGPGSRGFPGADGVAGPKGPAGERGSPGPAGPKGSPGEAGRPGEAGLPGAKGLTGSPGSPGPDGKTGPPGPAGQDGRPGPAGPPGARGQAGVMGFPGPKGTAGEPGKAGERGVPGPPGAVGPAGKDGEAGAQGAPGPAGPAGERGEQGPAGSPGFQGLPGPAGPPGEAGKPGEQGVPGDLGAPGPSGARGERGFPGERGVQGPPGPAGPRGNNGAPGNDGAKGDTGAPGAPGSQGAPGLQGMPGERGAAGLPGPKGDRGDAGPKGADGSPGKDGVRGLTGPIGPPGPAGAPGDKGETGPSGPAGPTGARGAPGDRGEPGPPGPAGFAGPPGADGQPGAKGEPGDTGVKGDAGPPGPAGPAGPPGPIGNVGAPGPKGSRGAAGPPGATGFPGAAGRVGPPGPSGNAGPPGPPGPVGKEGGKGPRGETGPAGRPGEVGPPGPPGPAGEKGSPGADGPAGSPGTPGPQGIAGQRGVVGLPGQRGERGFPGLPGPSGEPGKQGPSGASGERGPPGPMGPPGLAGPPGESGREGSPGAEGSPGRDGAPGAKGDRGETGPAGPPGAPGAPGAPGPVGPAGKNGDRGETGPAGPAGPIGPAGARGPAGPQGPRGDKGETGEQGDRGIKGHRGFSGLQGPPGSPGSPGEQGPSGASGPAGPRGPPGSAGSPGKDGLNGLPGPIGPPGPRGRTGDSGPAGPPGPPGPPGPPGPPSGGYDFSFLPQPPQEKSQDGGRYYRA
T1 sequence (P02466 86-1125 limits assumed): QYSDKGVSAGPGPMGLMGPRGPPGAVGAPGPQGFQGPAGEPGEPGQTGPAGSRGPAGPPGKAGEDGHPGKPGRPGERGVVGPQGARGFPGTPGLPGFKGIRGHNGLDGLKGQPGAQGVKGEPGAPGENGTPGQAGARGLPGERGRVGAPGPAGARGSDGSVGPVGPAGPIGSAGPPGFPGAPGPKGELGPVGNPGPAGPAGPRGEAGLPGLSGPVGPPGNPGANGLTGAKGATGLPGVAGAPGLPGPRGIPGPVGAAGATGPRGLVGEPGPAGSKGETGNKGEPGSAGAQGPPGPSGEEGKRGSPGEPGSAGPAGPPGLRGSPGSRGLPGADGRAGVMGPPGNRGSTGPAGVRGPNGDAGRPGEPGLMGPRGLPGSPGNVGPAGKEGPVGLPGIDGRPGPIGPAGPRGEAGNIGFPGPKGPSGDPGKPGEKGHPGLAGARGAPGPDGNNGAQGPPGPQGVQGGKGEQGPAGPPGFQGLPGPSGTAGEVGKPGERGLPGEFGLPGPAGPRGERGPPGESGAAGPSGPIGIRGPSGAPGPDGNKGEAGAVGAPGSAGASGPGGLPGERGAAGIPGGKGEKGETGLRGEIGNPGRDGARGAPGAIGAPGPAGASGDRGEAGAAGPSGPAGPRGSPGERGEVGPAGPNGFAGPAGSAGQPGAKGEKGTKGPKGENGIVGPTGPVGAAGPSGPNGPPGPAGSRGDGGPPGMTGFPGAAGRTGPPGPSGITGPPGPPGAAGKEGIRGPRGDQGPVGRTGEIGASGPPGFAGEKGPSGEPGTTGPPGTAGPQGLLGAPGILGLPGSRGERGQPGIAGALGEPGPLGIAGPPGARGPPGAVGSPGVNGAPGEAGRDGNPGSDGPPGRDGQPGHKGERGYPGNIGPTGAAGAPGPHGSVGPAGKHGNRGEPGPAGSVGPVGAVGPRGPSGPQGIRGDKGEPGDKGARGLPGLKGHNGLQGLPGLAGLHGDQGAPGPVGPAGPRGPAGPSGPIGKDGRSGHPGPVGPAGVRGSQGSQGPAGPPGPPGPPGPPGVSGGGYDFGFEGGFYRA
Protocol: 10 ml of a 3.79 mg/mL solution of rat collagen (acid soluble, type I, rat tail, Millipore Inc, cat#08-115) is dialyzed against 10 mM Phosphate (NaH2PO4), pH 4.2 at 4° C. with three changes of the dialysis buffer.
Ice-cold 1×PBS pH 10.8 is added to the collagen solution for a final collagen concentration of 10 μM, pH 7.4. Collagen solutions are gelled and dried down in the wells of a 96 well microtiter plate (Corning Polystyrene Flat Bottom, cat#3641). 70 μl of 10 μM collagen is aliquoted into each well in every other lane in the plate (48 wells) and the plate is incubated at 37° C. for 18 hours to form a gel and evaporate to dryness. […] The final well content of gelled collagen is measured by determination of hydroxyproline and is around 180 μg/ml.
(§1) a serial dilution of 0.2 μM-30 μM of the peptide chelate is prepared in PBS, pH 7.4 (˜300 μL of solution for each concentration). […] The concentration of free, unbound compound in the sample supernatants and the concentration of compound in the reserved (total) sample are determined by ICP-MS (Agilent 7500, gadolinium concentration). The concentration of compound bound to collagen is determined as [bound]=[total]−[unbound].
(§2) The binding of compounds to human, rat and dog collagen (5 μM) was measured over the concentration range 0.2-5 μM of Comp ID Nos.: 1-4. […]

[2] = system: acute and chronic myocardial infarct (fibrosis); type: in vivo, canine; conditions: for CNR between infarct and blood: Compound ID No. 1 0.0075 mmol/kg, extracellular gadolinium 0.2 mmol/kg
Excerpt: An experimental protocol was developed to test the ability of Compound ID No. 1 to differentiate acute from chronic myocardial infarction in an in-vivo large animal (canine) model. In this model, early following acute myocardial infarction, pathologic fibrosis has not fully developed within the infarct zone (fibrosis-poor), whereas in chronic MI (˜8 weeks following MI), dense fibrosis fully replaced necrotic myocardium (fibrosis-rich).
In the myocardial fibrosis canine model, a vascular occluder was placed surgically around the left anterior descending coronary artery (LAD) to allow occlusion and reperfusion. Two animals were studied following acute MI and two additional animals were studied both following acute MI, and chronically at 8 weeks. The LAD vessel was completely occluded for 70-90 minutes and then released to allow reperfusion. The chest was sutured closed, and the animal was allowed to recover. Imaging was performed on a 3 T clinical scanner in an acute (<1 week, minimal fibrosis expected in acute necrosis) and chronic (8 weeks, healing complete, necrotic myocardium replaced by dense collagenous scar) time point after infarction. For each time point, the animals undergo 2 scans separated by 48 hours with conventional gadolinium contrast (0.2 mmol/kg GdDTPA) and Compound ID No. 1 (0.0075 mmol/kg).
Imaging was performed on a 3 T clinical scanner (Siemens Verio). Breath holding was achieved by temporarily turning off the animal ventilator, and all images were ECG gated. Standard short and long axis cine imaging was performed throughout the left ventricle to identify left ventricular function and regional wall motion abnormalities. Delayed enhancement imaging (segmented 2D inversion recovery gradient echo) was performed prior to and serially following Compound ID No. 1 administration. Two strategies were employed: (1) a fixed inversion time was chosen to null pre-contrast myocardium (TI˜650 ms), and (2) a variable inversion time set to null post-contrast myocardium as is performed in traditional delayed enhancement imaging.
After imaging, animals were euthanized and post mortem analysis of myocardium was performed. Tissue was assessed grossly by histopathologic staining with triphenyltetrazolium chloride for myocardial infarction, and microscopically with Masson's trichrome staining for fibrosis. Additionally quantitative tissue analysis for hydroxyproline was used to measure total collagen content in tissue and compared to tissue gadolinium concentration by inductively coupled plasma-mass spectrometry. MR data was analyzed quantitatively for conspicuity of infarction and image quality as well as contrast to noise ratio (CNR) for infarct-normal myocardium and infarct-blood.

[3] = Relaxivity in PBS (Bruker mq60, 60 MHz); type: physicochemical; conditions: pH 7.4 PBS at 1.4 T, 37° C.
Protocol: The relaxivity of Compound ID Nos. 1, 2 and 4 were determined in PBS at 37° C. using a Bruker mq60 spectrometer operating at 60 MHz (1.4 tesla). Samples were equilibrated at concentrations ranging from 0-200 μM for at least 30 minutes at 37° C. T1 was measured using an inversion recovery sequence. Relaxivities were calculated by subtracting the relaxation rate of the buffer […] and then dividing the result by the concentration of Compound.

human type I collagen = target: T2, human type I collagen (Homo sapiens, UniProt P02452+P08123); assay: Collagen binding assay, dried human collagen plate; conditions: 37° C., pH 7.4; collagen 5 μM; fit to 1 binding site
T2 construct: purchased Advanced Biomatrix 5007-A
T2 sequence (P02452 162-1218 limits assumed): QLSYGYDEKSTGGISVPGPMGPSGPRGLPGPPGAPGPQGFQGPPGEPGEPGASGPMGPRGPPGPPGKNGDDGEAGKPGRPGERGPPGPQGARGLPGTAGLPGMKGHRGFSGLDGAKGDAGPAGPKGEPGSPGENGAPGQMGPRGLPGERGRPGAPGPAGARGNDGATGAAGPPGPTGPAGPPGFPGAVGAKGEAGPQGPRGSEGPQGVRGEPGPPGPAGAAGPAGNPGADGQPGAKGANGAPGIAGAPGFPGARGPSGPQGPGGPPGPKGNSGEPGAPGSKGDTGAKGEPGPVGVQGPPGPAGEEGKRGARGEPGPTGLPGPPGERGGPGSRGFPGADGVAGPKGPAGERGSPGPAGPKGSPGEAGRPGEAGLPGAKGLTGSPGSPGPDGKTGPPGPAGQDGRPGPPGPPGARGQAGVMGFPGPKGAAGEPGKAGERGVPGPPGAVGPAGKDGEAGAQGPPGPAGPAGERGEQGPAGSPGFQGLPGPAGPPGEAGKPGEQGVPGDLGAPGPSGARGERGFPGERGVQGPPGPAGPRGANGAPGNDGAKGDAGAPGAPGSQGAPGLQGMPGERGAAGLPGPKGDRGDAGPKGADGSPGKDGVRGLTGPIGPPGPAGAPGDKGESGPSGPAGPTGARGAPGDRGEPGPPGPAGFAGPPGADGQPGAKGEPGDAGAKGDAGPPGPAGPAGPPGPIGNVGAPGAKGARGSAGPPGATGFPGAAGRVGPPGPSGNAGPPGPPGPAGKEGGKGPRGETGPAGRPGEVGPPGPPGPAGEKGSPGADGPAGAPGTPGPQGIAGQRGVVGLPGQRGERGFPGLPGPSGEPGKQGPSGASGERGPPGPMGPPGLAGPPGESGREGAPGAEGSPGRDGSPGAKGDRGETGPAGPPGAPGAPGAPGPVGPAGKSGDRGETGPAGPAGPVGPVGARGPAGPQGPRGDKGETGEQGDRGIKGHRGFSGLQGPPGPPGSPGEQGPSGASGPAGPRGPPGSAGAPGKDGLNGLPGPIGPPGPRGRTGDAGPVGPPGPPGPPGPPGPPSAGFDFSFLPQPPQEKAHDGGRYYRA
T2 sequence (P08123 80-1119 limits assumed): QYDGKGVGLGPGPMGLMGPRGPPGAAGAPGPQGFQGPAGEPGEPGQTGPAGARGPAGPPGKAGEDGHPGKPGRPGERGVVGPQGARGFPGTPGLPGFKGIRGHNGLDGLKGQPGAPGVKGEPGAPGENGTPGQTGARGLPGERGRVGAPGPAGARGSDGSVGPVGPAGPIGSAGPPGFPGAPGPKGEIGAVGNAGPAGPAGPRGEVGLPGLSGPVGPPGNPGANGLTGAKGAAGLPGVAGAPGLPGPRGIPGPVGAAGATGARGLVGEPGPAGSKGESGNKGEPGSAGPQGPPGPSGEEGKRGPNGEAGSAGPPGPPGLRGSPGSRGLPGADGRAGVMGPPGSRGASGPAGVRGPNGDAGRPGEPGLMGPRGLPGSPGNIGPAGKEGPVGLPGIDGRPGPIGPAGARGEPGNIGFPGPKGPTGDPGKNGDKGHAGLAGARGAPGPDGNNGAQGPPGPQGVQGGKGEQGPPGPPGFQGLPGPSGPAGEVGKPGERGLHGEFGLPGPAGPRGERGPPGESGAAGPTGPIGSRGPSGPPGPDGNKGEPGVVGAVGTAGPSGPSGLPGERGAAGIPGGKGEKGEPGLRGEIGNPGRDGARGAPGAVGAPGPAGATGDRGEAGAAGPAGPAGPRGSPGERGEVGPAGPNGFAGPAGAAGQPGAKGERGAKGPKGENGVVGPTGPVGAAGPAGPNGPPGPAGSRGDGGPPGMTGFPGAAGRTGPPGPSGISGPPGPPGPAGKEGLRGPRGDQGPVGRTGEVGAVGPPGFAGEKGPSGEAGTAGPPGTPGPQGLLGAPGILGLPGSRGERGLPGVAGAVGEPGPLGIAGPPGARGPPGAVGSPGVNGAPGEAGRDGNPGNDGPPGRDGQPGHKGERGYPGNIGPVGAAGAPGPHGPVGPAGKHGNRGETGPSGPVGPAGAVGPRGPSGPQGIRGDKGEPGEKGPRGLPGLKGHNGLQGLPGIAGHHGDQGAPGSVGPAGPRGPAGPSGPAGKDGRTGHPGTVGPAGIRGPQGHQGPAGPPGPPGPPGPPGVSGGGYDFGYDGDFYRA
Protocol: 10 ml of a solution of 3 mg/ml of human type I collagen (VitroCol solution, Advanced Biomatrix, cat#5007-A) is dialyzed against 10 mM Phosphate (NaH2PO4), pH 4.2 at 4° C. with three changes of the dialysis buffer. The protein concentration is determined by liquid chromatography determination of hydroxyproline (P. Hutson, J. Chromatogr. B, 791 (2003) 427-430).
Ice-cold 1×PBS pH 10.8 is added to the collagen solution for a final collagen concentration of 10 μM, pH 7.4. Collagen solutions are gelled and dried down in the wells of a 96 well microtiter plate (Corning Polystyrene Flat Bottom, cat#3641). […] The final well content of gelled collagen is measured by determination of hydroxyproline and is around 180 μg/ml.
as §1, §2

[4] = target: Native canine Collagen Type I and III protein; assay: Collagen binding assay, dried dog collagen plate; conditions: 37° C., pH 7.4; collagen 5 μM; fit to 1 binding site
Protocol: Canine collagen (Native canine Collagen Type I and III protein, YO protein AB, cat#739) is dissolved in 0.5 M acetic acid at 3.3 mg/ml by vortexing and shaking overnight at 4° C. The solution is then dialyzed against 10 mM Phosphate (NaH2PO4), pH 4.2 at 4° C. with three changes of the dialysis buffer.
Ice-cold 1×PBS pH 10.8 is added to the collagen solution for a final collagen concentration of 10 μM, pH 7.4. Collagen solutions are gelled and dried down in the wells of a 96 well microtiter plate (Corning Polystyrene Flat Bottom, cat#3641). 70 μl of 10 μM collagen is aliquoted into each well in every other lane in the plate (48 wells) and the plate is incubated at 37° C. for 18 hours to form a gel and evaporate to dryness. Ungelled collagen is removed by washing the collagen films with 200 μl 1×PBS pH 7.4 (four times, 15 min per wash). The thin collagen fibril film remains, coating the bottom of each well. After washing by PBS the plate is again dried at 37° C. for 2 hours and is stored at −20° C. The final well content of gelled collagen is measured by determination of hydroxyproline and is around 180 μg/ml.
a serial dilution of 0.2 μM-30 μM of the peptide chelate is prepared in PBS, pH 7.4 (˜300 μL of solution for each concentration). 90 μl of each concentration is also reserved in a HPLC glass vial as a sample to measure the total concentration. 140 μL of each dilution of peptide chelate is added to wells containing and non-containing collagen (control for nonspecific plastic binging). The plate is then incubated on a shaker table (300 rpm) for 2 hours at room temperature to allow the compound to bind. […] The concentration of free, unbound compound in the sample supernatants and the concentration of compound in the reserved (total) sample are determined by ICP-MS (Agilent 7500, gadolinium concentration). The concentration of compound bound to collagen is determined as [bound]=[total]−[unbound].
as §2

myocardial collagen = conditions: rat MI model, healthy and infarcted heart
Protocol: Myocardial infarction was induced in Sprague Dawley rats by occlusion of the left anterior descending coronary artery followed by reperfusion. The rats were anesthetized with an intraperitoneal (i.p.) injection of 100 μg pentobarbital sodium per gram body weight and a thorocotamy was performed. The pericardium was removed and the left anterior artery was sutured with a 7.0 silk suture for 60 minutes after which reperfusion was established.
Animals were sacrificed at 60 minutes post-injection and the heart removed and sectioned for analysis.
The slope for this correlation is a measure of efficacy.

## CC(C)C[C@H](NC(=O)[C@@H]1CSSC[C@H](NC(=O)[C@H](Cc2c[nH]cn2)NC(=O)[C@H](Cc2c[nH]c3ccccc23)NC(=O)[C@H](CCCCNC(=O)CC[C@H](C(=O)O)N2CCN(CC(=O)O)CCN(CC(=O)O)CCN(CC(=O)O)CC2)NC(=O)CC[C@H](C(=O)O)N2CCN(CC(=O)O)CCN(CC(=O)O)CCN(CC(=O)O)CC2)C(=O)N[C@@H]([C@@H](C)O)C(=O)N[C@@H]([C@@H](C)O)C(=O)N[C@@H](CCCCNC(=O)CC[C@H](C(=O)O)N2CCN(CC(=O)O)CCN(CC(=O)O)CCN(CC(=O)O)CC2)C(=O)N[C@@H](Cc2ccccc2)C(=O)N2CCC[C@H]2C(=O)N[C@@H](Cc2c[nH]cn2)C(=O)N[C@@H](Cc2c[nH]cn2)C(=O)N[C@@H](Cc2ccc(O)cc2)C(=O)N1)C(=O)N[C@@H](Cc1ccc(O)cc1)C(=O)N[C@@H](Cc1ccc(-c2ccccc2)cc1)C(N)=O [Compound ID No. 2] (X1-K(X1)WHCTTK(X1)FPHHYCLY[Bip]-NH2; disulfide 4-13)
[1]
  Kd: 20.6 µM
[2]; chronic myocardial infarction, FIG. 25b
  MR image uptake in scar vs healthy myocardium: early uptake
[3]
  R1 (relaxivity): 42.9 mM⁻¹ s⁻¹
Human type I collagen
  Kd: 4.9 µM
[4]
  Kd: 4.9 µM
Myocardial collagen
  calculated slope, hydroxyproline vs. gadolinium concentration: 3184

## CC(C)[C@H](NC(=O)[C@@H]1CSSC[C@H](NC(=O)[C@H](Cc2c[nH]cn2)NC(=O)[C@H](Cc2c[nH]c3ccccc23)NC(=O)[C@H](CCCCNC(=O)CC[C@H](C(=O)O)N2CCN(CC(=O)O)CCN(CC(=O)O)CCN(CC(=O)O)CC2)NC(=O)CC[C@H](C(=O)O)N2CCN(CC(=O)O)CCN(CC(=O)O)CCN(CC(=O)O)CC2)C(=O)N[C@@H](Cc2ccc(O)cc2)C(=O)N[C@@H]([C@@H](C)O)C(=O)N[C@@H](CCCCNC(=O)CC[C@H](C(=O)O)N2CCN(CC(=O)O)CCN(CC(=O)O)CCN(CC(=O)O)CC2)C(=O)N[C@@H](Cc2ccccc2)C(=O)N2CCC[C@H]2C(=O)N[C@@H](Cc2c[nH]cn2)C(=O)N[C@@H](Cc2c[nH]cn2)C(=O)N[C@@H](Cc2ccc(O)cc2)C(=O)N1)C(=O)N[C@@H](Cc1ccc(O)cc1)C(=O)N[C@@H](Cc1ccc(-c2ccccc2)cc1)C(N)=O [Compound ID No. 4] (X1-K(X1)WHCYTK(X1)FPHHYCVY[Bip]-NH2; disulfide 4-13)
[1]
  Kd: 4.6 µM
[3]
  R1 (relaxivity): 51.2 mM⁻¹ s⁻¹
Human type I collagen
  Kd: 9.6 µM
[4]
  Kd: 2 µM
Myocardial collagen
  calculated slope, hydroxyproline vs. gadolinium concentration: 3057

## O=C([O-])CN(CCN(CC(=O)[O-])CC(=O)O)CCN(CC(=O)[O-])CC(=O)O.[Gd+3] [extracellular gadolinium, gadolinium diethylenetriaminepentaacetate, reference compound]
[2]; acute MI
  CNR between infarct and blood: 6.3±3.4
[2]; chronic MI (8 weeks)
  CNR between infarct and blood: 5±1.3
